Like-named read-outs stand apart in the source and are kept apart here. Marks after values point to notes of the source that are not given here.

Series [1] concerns reconstructed human corneal epithelium model (SkinEthic™ HCE). An excerpt:
The reconstructed human corneal epithelium model, (SkinEthic™ HCE) was purchased from Episkin in Lyon. The model consists of immortalized human corneal epithelial cells grown in a defined medium at the air-liquid interface. The tissue structure obtained is a multi-layer epithelium similar to the natural tissue structure of the human cornea, comprising 5-7 layers with a surface area of 0.5 cm^2.
Polyhedral cells and wing cells are also present. The tissue also comprises specific ultrastructures such as intermediate filaments, mature hemidesmosomes and desmosomes. […] The tissues are shipped on a semi-solid layer of agarose culture medium. Upon receipt, the tissues are transferred to maintenance medium (1 ml/well) in 6-well plates and incubated in a climatic chamber at 37° C., 5% CO2. The tissues are used 24 hours later.
Liquid products are tested for solubility in phosphate-buffered saline (PBS) or olive oil. In summary, 100 μl of the test product is mixed with 200 μl of PBS or olive oil.
The sample is mixed on a vortex mixer. Turbidity and possible phase separation are assessed by eye. The products are tested pure or diluted to 30%. Products that are not soluble in PBS or olive oil cannot be tested at 30%.
The procedure for applying liquid products to the tissues was optimized as follows: the chemicals are tested at two concentrations, 100% and 30%. In summary, the tissue surface is moistened by adding 20 μl of PBS at 37° C. and incubation for 10 min at 37° C./5% CO2. The corneal epithelia are then treated topically with 50±2 μL of the test product (corresponding to 100 μL/cm2) and incubated for 10 min at room temperature. The tissues are then washed with sterile PBS (2×25 ml) at 37° C. PBS is applied to the edge of the insert (not directly on the tissue) to create a gentle vortex that removes the chemical. The tissues on their inserts are then “embedded” in 5 ml of maintenance medium at room temperature for 30 min in order to remove as much as possible of the product remaining on the tissue surface. The medium is then removed by gently tapping the insert on absorbent paper, and 50 μl of maintenance medium at 37° C. is added. The inserts are then incubated for 6 h at 37° C./5% CO2.
In summary, corneal tissues are recovered with forceps and placed in tubes for rapid freezing in liquid nitrogen. The RNA is then extracted by the QIAzol technique (Qiagen, Courtaboeuf, France) with an “RNeasy Mini Kit” according to the manufacturer's instructions. In summary, the tissues are placed in 1 ml of QIAzol and homogenized using the TissueLyser II (Qiagen, Courtaboeuf, France) with 2 steel beads. After centrifugation, the supernatant is collected and 0.2 ml of bromochloro propane (Sigma, France) is added, then the whole is vigorously mixed. The homogenate is centrifuged at 12,000 g for 15 min at 4° C. The upper phase (aqueous phase) is added to 600 μl of 70% ethanol and immediately mixed by pipetting. The mixture is transferred to an RNeasy spin column placed on a 2 ml collection tube and the RNA is collected according to the manufacturer's instructions (Qiagen, Courtaboeuf, France).
In summary, the transcription of total RNA is performed with 1 μg of total RNA in a final volume of 20 μl using “Random Primers” (Invitrogen, France) and “SuperScript III Reverse Transcriptase” (Invitrogen, France) according to the manufacturer's instructions. Quantitative RT-PCR uses a PCR reagent mix: SYBR Green Real-Time PCR Master Mix (ROCHE, France) with 0.4 μM of each nucleotide primer in a final volume of 25 μl. The reaction is performed in an LC480 System (ROCHE, France). The amplification program comprises a cycle at 95° C. for 1 min, followed by 40 cycles with denaturation at 95° C. for 15 s, a hybridization and amplification phase at 60° C. for 15 s, followed by a final elongation phase at 72° C. for 40 s.

For the next series, the system named is eye. The following applies: cited from earlier work; for UN-GHS: Table 3, results obtained by the Draize test, liquid products; for UN GHS: Table 1, list of liquid products studied; for eye irritation category as stated in text and figure legends: control chemicals and chemicals of FIG. 1 and FIG. 2.
Where [2] appears, read: liquid products, category from LII at 100% and 30%.

In the case of “1-Ethyl-3-methylimidazolium ethylsulfate”, the EIT prediction result in series [1] (setting [2]) is “No Cat*”. Further, the UN-GHS entry with eye is given as “No Cat”.
As to `C=CCCCCCCC=C` [1,9-Decadiene], in series [1], the EIT prediction entry is “No Cat”. The UN-GHS result with eye is “No Cat”.
On to `OCCCCCCCCCl` [1-Chloroctan-8-ol], for which the EIT prediction entry in series [1] (setting [2]) is “Cat 1”. In addition, in the series on eye, the “UN GHS” value was “Cat 1” and the UN-GHS entry is given as “Cat 1”.
Take `CC(O)CC(C)O` (centres unmarked) [2,4-Pentanediol]: the EIT prediction result in series [1] is reported as “No Cat”. For the same molecule, in the series on eye, the UN-GHS entry is “No Cat”; the “eye irritation category as stated in text and figure legends” value (“eye irritation category as stated” below) is listed as “No category”.
For `O=C(Cl)c1c(Cl)cccc1Cl` [2,6-Dichlorobenzoyl chloride], the EIT prediction entry in series [1] (human, 10 min) was “Cat 2”. Moreover, in the series on eye, the UN-GHS entry is “Cat 2A”.
As for `C=C(C)C(=O)OCCOCC` [2-Ethoxyethyl methacrylate], in series [1], the EIT prediction result is on record as “No Cat”. For the same molecule, the UN-GHS entry in the series with eye is “No Cat”.
Turning to `CCCC(C)CO` (centres unmarked) [2-Methyl-1-pentanol], the EIT prediction result in series [1] (human, 10 min) is “Cat 2”. In addition, in the series on eye, the UN-GHS entry is “Cat 2B”; the “eye irritation category as stated” value is reported as “Category 2”.
`N#CCCCl` [3-Chloropropionitrile]: in series [1] (setting [2]), the EIT prediction entry is given as “Cat 2”. The UN-GHS entry in the series on eye is “Cat 2B”.
`CC(C)=O` [Acetone 100%, Acetone]: the EIT prediction result in series [1] (setting [2]) is given as “Cat 2”. In the series with eye, the UN-GHS result is listed as “Cat 2A”; the “eye irritation category as stated” value was “category 2”.
As to `C=CCO` [Allyl alcohol], the EIT prediction entry in series [1] (setting [2]) was “Cat 2”. For the same molecule, in the series with eye, the UN-GHS entry is on record as “Cat 2A”.
As for `CC(C)(C)CC(C)(C)c1ccc(OCCOCC[N+](C)(C)Cc2ccccc2)cc1` [Benzethonium chloride 10%, Benzethonium chloride], in series [1] (setting [2]), the EIT prediction entry is recorded as “Cat 1”.
Regarding `N=C(NCCCCCCNC(=N)NC(=N)Nc1ccc(Cl)cc1)NC(=N)Nc1ccc(Cl)cc1.O=C(O)[C@H](O)[C@@H](O)[C@H](O)[C@H](O)CO.O=C(O)[C@H](O)[C@@H](O)[C@H](O)[C@H](O)CO` [Chlorhexidine gluconate (20%), Chlorhexidine gluconate], in series [1] (setting [2]), the EIT prediction result is “Cat 2”. In the series on eye, the UN-GHS result is on record as “Cat 2A”.
In the case of `[H]/N=C(\N/C(=N/[H])NCCCCCCNC(=N)NC(=N)Nc1ccc(Cl)cc1)Nc1ccc(Cl)cc1` [Chlorhexidine], in series [1] (human, 10 min), the EIT prediction entry is listed as “Cat 1”. Also, in the series on eye, the “UN GHS” value is “Cat 1” and the UN-GHS result was “Cat 1”.
As to `CCN(CC)C(=O)c1cccc(C)c1` [Diethyl toluamide], the EIT prediction result in series [1] (human, 10 min) was “Cat 2”. In addition, the UN-GHS result in the series with eye was “Cat 2B”.
In the case of `CCN(CC)CCC#N` [Diethylaminopropionitrile], the EIT prediction entry in series [1] (setting [2]) was “Cat 1”. Further, in the series with eye, the “UN GHS” value was “Cat 1” and the UN-GHS result is “Cat 1”.
As for `CCCSSCCC` [Dipropyl disulfide], the EIT prediction entry in series [1] is recorded as “No Cat”. Besides, the UN-GHS result in the series with eye was “No Cat”.
For `CCOC(=O)C(C)C(C)=O` (centres unmarked) [Ethyl-2-methylacetoacetate], in series [1] (human, 10 min), the EIT prediction result is on record as “Cat 2*”. Moreover, in the series with eye, the UN-GHS entry was “Cat 2B”.
With `O=C1CCCO1` [Gamma-butyrolactone], in series [1] (setting [2]), the EIT prediction result is listed as “Cat 2”. Besides, the UN-GHS entry with eye is listed as “Cat 2A”.
Consider `OCC(O)CO` [Glycerol], for which the EIT prediction result in series [1] is listed as “No Cat”. For the same molecule, the “eye irritation category as stated” value in the series with eye was “No category”.
As to `CCCCCCCCCCCCCCCC[N+](C)(C)C.[Br-]` [Hexadecyltrimethylammonium bromide 6%, Hexadecyltrimethylammonium bromide], the EIT prediction result in series [1] (human, 10 min) is on record as “Cat 1”. Moreover, in the series with eye, the “UN GHS” value is recorded as “Cat 1” and the UN-GHS result is on record as “Cat 1”.
In the case of `CC(O)C(=O)O` (centres unmarked) [Lactic acid], the EIT prediction entry in series [1] (human, 10 min) is on record as “Cat 1”. Besides, in the series with eye, the “UN GHS” value is given as “Cat 1”; the UN-GHS result is recorded as “Cat 1”; the “eye irritation category as stated” value is “category 1”.
Consider `CCC(C)=O` [Methyl ethyl ketone], for which, in series [1] (setting [2]), the EIT prediction entry is on record as “Cat 2”. Further, the “eye irritation category as stated” value in the series on eye is “category 2”.
`COC(=O)CS` [Methyl thioglycolate]: in series [1] (human, 10 min), the EIT prediction entry is “Cat 1”. In addition, in the series with eye, the “UN GHS” value was “Cat 1”; the UN-GHS entry is “Cat 1”; the “eye irritation category as stated” value is recorded as “category 1”.
Consider `CCCCCCCC[Si](OC)(OC)OC` [Octyltrimethoxysilane (SILAN 108), Octyltrimethoxysilane], for which the EIT prediction result in series [1] is given as “No Cat*”. In the series on eye, the UN-GHS entry was “No Cat”.
With `CCCOCC(C)O` (centres unmarked) [Propasol Solvent P], the EIT prediction result in series [1] (setting [2]) is reported as “Cat 1”. Moreover, the UN-GHS entry with eye was “Cat 2A”.
As for `[Na+].[OH-]` [Sodium hydroxide 0.3%, Sodium hydroxide], in series [1] (setting [2]), the EIT prediction result was “Cat 2”. In the series on eye, the UN-GHS result was “Cat 2A”.
As to `CCCCCCCCCCCCOS(=O)(=O)[O-].[Na+]` [Sodium lauryl sulfate 3%, Sodium lauryl sulfate], the EIT prediction result in series [1] (setting [2]) is “No Cat”.
For `C=CC(=O)OCCOCCOCCOCCOC(=O)C=C` [Tetraethylene glycol diacrylate], in series [1] (human, 10 min), the EIT prediction entry was “Cat 2”. Moreover, in the series with eye, the “UN GHS” value is recorded as “Cat 1” and the UN-GHS result was “Cat 1”.
Turning to `CO[Si](CCCNCCN)(OC)OC` [[3-(2-Aminoethylamino)propyl]trimethoxysilane], the EIT prediction entry in series [1] (human, 10 min) was “Cat 1”. Besides, in the series on eye, the “UN GHS” value is reported as “Cat 1” and the UN-GHS result is given as “cat 1”.
In the case of `CC(C)C=O` [iso-Butanal], in series [1] (setting [2]), the EIT prediction entry is “Cat 2”. The UN-GHS entry in the series with eye is “Cat 2B”.
With `CCCCCCBr` [n-Hexyl bromide], in series [1] (setting [2]), the EIT prediction entry is “No Cat*”. In addition, in the series with eye, the UN-GHS result is “No Cat”.
For “Benzalkonium chloride [Benzalkonium chloride 5%]”, the EIT prediction result in series [1] (setting [2]) was “Cat 1”. Besides, in the series on eye, the “UN GHS” value is “Cat 1” and the UN-GHS entry is listed as “Cat 1”.
In the case of Triton X100 [Triton X100 1%], the EIT prediction entry in series [1] (setting [2]) is reported as “No Cat”. In the series with eye, the UN-GHS entry is “No Cat”.
As to Triton X100 [Triton X100 5%], the EIT prediction result in series [1] (setting [2]) was “Cat 2”. The UN-GHS entry in the series with eye is listed as “Cat 2A”.
Turning to Triton X100 [Triton X100 10%], the EIT prediction result in series [1] (setting [2]) is “Cat 1”. Further, in the series with eye, the “UN GHS” value is reported as “Cat 1” and the UN-GHS entry was “Cat 1”.
Triton X-100 [Triton X-100 10%]: in series [1] (setting [2]), the EIT prediction result is given as “Cat 1”. In the series on eye, the “UN GHS” value was “Cat 1” and the UN-GHS result is given as “Cat 1”.

Values taken from patent publication US12410472B2, “Method for evaluating the eye irritation potential of chemicals” (IMMUNOSEARCH, priority 2016, dated 2025).
